The test system of test [1] is human term placenta. Put plainly: Effect of enzyme inhibitors on prostanoid release from perifused human term placental explants (RIA). It is filed as cell-based. As to conditions: quinacrine 10 μM; for effect on PGFM release vs control / effect on TxB2 release vs control: EDTA 1 mM in perifusion medium; for effect on 6-keto-PGF1α release vs control / effect on PGE release vs control: EDTA 1 mM, NDGA 10 μM in perifusion medium. As to the method:
Radioimmunoassays were performed in a fashion similar to what has been previously described (Siler-Khodr et al., 1986, Biol. Reprod., 35:312) which is specifically incorporated herein for this purpose, with specific exception as noted below. A perifusion model (described in Examples 2 and 3) was employed to determine placental cell response. Media collected from the perifusion samples prepared from placental tissues were assayed. […] All the samples from a given perifusion (placenta) were determined in the same assay. At the beginning of the fifth hour of the perifusion, Medium 199 in the experimental chambers was changed to Medium 199 containing quinacrine (10 μM), EDTA (1 mM), NDGA (10 μM) or indomethacin (50 μg/ml). Four replicated chambers were perifused with control medium and each of the experimental media. This experimental design was repeated in three different perifusions using placental tissues from three different patients according to the procedure described in Example 3. […] Term placentas were obtained and placed on ice immediately after vaginal delivery from patients having spontaneous labor and delivery without any known obstetrical or medical complications. Tissues were obtained in accordance with a protocol approved by the Institutional Review Board. Within 30 minutes, the placental tissues were dissected of decidua, chorionic plates and large fetal vessels on ice. The placental tissues were cut into small fragments (approximately 25 pieces having a total weight of approximately 1 g), rinsed free of blood by repeated washing with ice cold normal saline until clear in color, and the tissue fragments placed in a 3-ml tissue chamber, placed in a 37° C. water bath. […] This medium is hereafter referred to as Medium 199. […] Perifusion was performed for two hours prior to initiation of sample collection. In this fashion, all tissues were thoroughly washed and equilibrated. Samples were collected hourly, beginning at the start of the third hour, into 12×75 mm glass tubes containing 0.1 ml indomethacin and 1100 μg/ml dimethyl sulfoxide [DMSO]. It took approximately one hour for the input medium to pass through the perifusion tubing and chamber and to be collected in the sample tube, thus the dead volume of the system was approximately 1 ml. Collection of the effluent of the 20 chambers was done simultaneously, using an ISCO fraction collector Retriever III adapted with a 20-tube rack and manifold. The prostanoid release for a given chamber was expressed as the increase over the fourth-hour prostanoid release for that chamber. Because there may be differences in the amounts of blood vessels and connective tissue among placental explants, the release expressed per unit weight results in high variance between chambers. […] Thus, the release of each chamber was related to its functional competence at the time of treatment rather than its mass. The mean release for replicate chambers from a given placenta for each particular prostanoid in the presence of arachidonic acid or each of the various enzyme inhibitors was calculated and then the mean data for each of the three different placentas was averaged at each time point. Thus, each placenta was weighted equally in the statistical analyses. Two-way analysis of variance of the average response for each prostanoid for each dose of arachidonic acid or each enzyme inhibitor studied, at each time point, was performed. The normalized data were tested for homogeneity using Cohrna's Q test, and no significant deviation was found. Thus, for each prostanoid and each treatment, where there was a significant main effect or interaction, Dunnett's comparison test was applied to determine the point(s) of significant difference as compared to the control. P<0.05 was considered to be statistically significant.

The subject of test [2] is human term placenta. The test can be described thus: Effect of arachidonic acid on prostanoid release from perifused human term placental explants. It is filed as cell-based. As to the method:
Radioimmunoassays were performed in a fashion similar to what has been previously described (Siler-Khodr et al., 1986, Biol. Reprod., 35:312) which is specifically incorporated herein for this purpose, with specific exception as noted below. A perifusion model (described in Examples 2 and 3) was employed to determine placental cell response. Media collected from the perifusion samples prepared from placental tissues were assayed. After an initial pilot study of the prostanoid release of each of the perifusion placental tissue media samples collected hourly, samples from hours 3, 4, 5, 6, 8 and 12 of the perifusion were chosen for assay and for data analysis. All the samples from a given perifusion (placenta) were determined in the same assay.
The effect of exogenous arachidonic acid on basal prostanoid release was studied by perifusing placental tissue from the beginning of the fifth hour of the perifusion, with Medium 199 containing arachidonic acid (0.2, 1.0 or 10 μg/ml). Arachidonic acid was dissolved in ethanol such that 0.02 ml ethanol per 100 ml of Medium 199 was needed to obtain these concentrations, and the resulting ethanol concentration was 0.02%. The control medium was also made to be 0.02% ethanol for valid comparison of the arachidonic acid parameter only. Four replicated chambers were perifused with control medium and each of the experimental arachidonic acid media. This experimental design was repeated using placental tissues from three different patients.
Briefly, term placenta were obtained and placed on ice immediately after vaginal delivery from patients having spontaneous labor and delivery without any known obstetrical or medical complications. Tissues were obtained in accordance with a protocol approved by the Institutional Review Board. Within 30 minutes, the placental tissues were dissected of decidua, chorionic plates and large fetal vessels on ice. The placental tissues were cut into small fragments (approximately 25 pieces having a total weight of approximately 1 g), rinsed free of blood by repeated washing with ice cold normal saline until clear in color, and the tissue fragments placed in a 3-ml tissue chamber, placed in a 37° C. water bath. Twenty replicate chambers were prepared and each perifused with Medium 199 containing 0.05% BSA, 100 U penicillin and 100 μg streptomycin per ml at a rate of 1 ml per hour for 12 hours. This medium is hereafter referred to as Medium 199. The influx medium was aerated with 95% air and 5% CO2 throughout the perifusion. Perifusion was performed for two hours prior to initiation of sample collection. In this fashion, all tissues were thoroughly washed and equilibrated. Samples were collected hourly, beginning at the start of the third hour, into 12×75 mm glass tubes containing 0.1 ml indomethacin and 1100 μg/ml dimethyl sulfoxide [DMSO]. It took approximately one hour for the input medium to pass through the perifusion tubing and chamber and to be collected in the sample tube, thus the dead volume of the system was approximately 1 ml. Collection of the effluent of the 20 chambers was done simultaneously, using an ISCO fraction collector Retriever III adapted with a 20-tube rack and manifold.
The prostanoid release for a given chamber was expressed as the increase over the fourth-hour prostanoid release for that chamber. Because there may be differences in the amounts of blood vessels and connective tissue among placental explants, the release expressed per unit weight results in high variance between chambers. […] Thus, the release of each chamber was related to its functional competence at the time of treatment rather than its mass.
The mean release for replicate chambers from a given placenta for each particular prostanoid in the presence of arachidonic acid or each of the various enzyme inhibitors was calculated and then the mean data for each of the three different placentas was averaged at each time point. […]

Setting [3] is: arachidonic acid 10 μg/ml, within three hours of exposure.

Each structure is given as a SMILES string.

Four compounds from US6461613B2, “Methods and compositions for the selective regulation of chorionic prostanoids” (priority 1993, dated 2002) can be followed below.

Turning to `O=C(O)CN(CCN(CC(=O)O)CC(=O)O)CC(=O)O` [EDTA, ethylene diamino tetraacetic acid], in test [1], the “effect on PGFM release vs control” value is “did not reduce”, the “effect on TxB2 release vs control” value is reported as “did not reduce”, the “effect on 6-keto-PGF1α release vs control” value was “significant inhibition” and the “effect on PGE release vs control” value is “did not reduce”.
In the case of `CC(Cc1ccc(O)c(O)c1)C(C)Cc1ccc(O)c(O)c1` (stereo not drawn) [NDGA, nordihydroguaiaretic acid], in test [1], the “effect on 6-keto-PGF1α release vs control” value is recorded as “significant inhibition” and the “effect on PGE release vs control” value is recorded as “inhibited”.
Take `CCCCC/C=C\C/C=C\C/C=C\C/C=C\CCCC(=O)O` [arachidonic acid]: the “effect on prostanoid production” value in test [2] (arachidonic acid 0.2 μg/ml) is listed as “no significant effect”. Further, in test [2] (arachidonic acid 1.0 μg/ml), the “effect on prostanoid production” value was “no significant effect”. For the same compound, in test [2] (setting [3]), the “effect on PGE release” value is “significant increase” and the “effect on PGF release” value was “significant increase”. In test [2] (arachidonic acid 0.2-10 μg/ml), the “effect on 6-keto-PGF1α” value is on record as “no significant effect”, the “effect on PGFM” value was “no significant effect” and the “effect on TxB2” value is on record as “no significant effect”.
On to `CCN(CC)CCCC(C)Nc1c2ccc(Cl)cc2nc2ccc(OC)cc12` (stereo not drawn) [quinacrine], for which, in test [1], the “effect on PGFM release vs control” value is reported as “no significant effect”, the “effect on TxB2 release vs control” value is on record as “no significant effect”, the “effect on 6-keto-PGF1α release vs control” value is listed as “no significant effect” and the “effect on PGE release vs control” value is “no significant effect”. Also, in test [1] (first hour of exposure), the “effect on PGF release vs control” value is reported as “significant inhibition”.
